The subject of data set [1] is acute lung injury induced by endotoxin. The following applies: pigs, cited from earlier work.
The target of data set [2] is eosinophil membranes (LTB4 binding). As to conditions: read-out: IC50 for inhibition of the binding of radiolabeled LTB4 to eosinophil membranes; cited from earlier work.
The test system of another data set is eosinophil. As to conditions: concentration of 10 μM; cited from earlier work.
The next data set has as its system ROS. Kind of data set: ROS levels in BAL fluid cells (DCF fluorescence, FACS). As to conditions: 1.6 mg/kg i.v. 24 hr and 1 hr before 10% OVA; BAL fluid 48 h after challenge. The data set is classed as in vivo, mouse. The procedure:
(§1) Female BALB/c mice and C57BL/6 mice (7 weeks old; 18-20 g) were obtained from Orientbion Inc. (Seoungnam, Korea). Sensitization and challenge were carried out as described previously with some modification (28). Briefly, female C57BL/6 mice (7 weeks old; 18-20 g) were immunized by intraperitoneal (i.p.) injection of 200 μg ovalbumin (OVA) emulsified in 2.5 mg of adjuvant aluminum hydroperoxide gel (alum) (Pierce, Rockford, Ill.). A second i.p. injection of 20 μg OVA adsorbed onto alum (2.5 mg) was administered 10 days later. After an additional 10 days, mice were exposed to an aerosol of 1% OVA in saline for 30 min daily on 3 consecutive days. On day 25, mice were finally challenged by provocation with 10% OVA aerosol. For inhibition experiments, sense or antisense BLT2 (1.6 mg/kg) was injected intravenously 24 h and then 1 h before the 10% OVA challenge. The mice were then killed on day 27 to assess asthmatic phenotypes. Antisense BLT2 oligonucleotide (5′-[…]-3′ (SEQ ID NO: 15)), sense BLT2 oligonucleotide (5′-[…]-3′ (SEQ ID NO: 16)).
ROS levels in BAL fluids were measured as a function of DCF fluorescence as described previously (30). […] DCF fluorescence was excited at 488 nm and the evoked emission was filtered with a 515-nm long-pass filter. […]

For a further data set, the system named is OVA-challenged mice. In words: Eosinophil infiltration in BAL fluid of OVA-challenged mice. The data set is classed as in vivo, mouse. The following applies: C57BL/6 mice, 1.6 mg/kg i.v. 24 hr and 1 hr before 10% OVA challenge, 48 hr. The protocol: as §1
Inflammatory cells in the BAL fluid were collected by centrifugation (1,000 g for 3 min) and washed once in PBS. Cells were counted using a hemocytometer, and viability was assessed by trypan blue exclusion. […]

The next data set relates to LTB4. In words: LTB4 level in BAL fluid (EIA). As to conditions: antisense BLT2 1.6 mg/kg i.v. 24 h and 1 h before 10% OVA; 48 h. The data set is classed as in vivo, mouse. The procedure: Female BALB/c mice and C57BL/6 mice (7 weeks old; 18-20 g) were obtained from Orientbion Inc. (Seoungnam, Korea). Sensitization and challenge were carried out as described previously with some modification (28). Briefly, female C57BL/6 mice (7 weeks old; 18-20 g) were immunized by intraperitoneal (i.p.) injection of 200 μg ovalbumin (OVA) emulsified in 2.5 mg of adjuvant aluminum hydroperoxide gel (alum) (Pierce, Rockford, Ill.). A second i.p. injection of 20 μg OVA adsorbed onto alum (2.5 mg) was administered 10 days later. After an additional 10 days, mice were exposed to an aerosol of 1% OVA in saline for 30 min daily on 3 consecutive days. On day 25, mice were finally challenged by provocation with 10% OVA aerosol. For inhibition experiments, sense or antisense BLT2 (1.6 mg/kg) was injected intravenously 24 h and then 1 h before the 10% OVA challenge. The mice were then killed on day 27 to assess asthmatic phenotypes. […]
Levels of LTB4 were quantified with the leukotriene B4 enzyme immunoassay (EIA) Biotrak™ system (Amersham Biosciences, UK). […] Substrate (tetramethylbenzidine) was then added, and the reaction was stopped by adding an acid solution and the color read at 450 nm in a spectrophotometer. […] Statistical significance of differences between groups was assessed by analysis of variance, and P<0.05 was considered significant.

For the compound `CCc1cc(C(C)=O)c(O)cc1OCCCCCC(C)(C)c1nnn[nH]1` [LY255283, 1-[5-ethyl-2-hydroxy-4-[[6-methyl-6-(1H-tetrazol-5-yl)heptyl]oxy]phenyl]-ethanone, reference compound], the activation of neutrophils result in data set [1] (endotoxin) is on record as “limits activation of neutrophils”. Also, the “acute lung injury induced by endotoxin” value in data set [1] was “prevents acute lung injury”. In addition, the IC50 (commonly the concentration needed to halve the response being measured) in data set [2] is 260 nM. Further, in the data set with eosinophil, the “inhibition of eosinophil chemotaxis” value was 80%.

Regarding “antisense BLT2: Antisense BLT2 oligonucleotide 5′-GCTCAGTAGTGTCTCATTCC-3′ (SEQ ID NO: 15) (listed as DNA, chemistry not fully specified)”, the “reduction of ROS levels in BAL fluid” value in the data set on ROS is listed as −70%. The “reduction of eosinophil infiltration in BAL fluids” value with OVA-challenged mice is about 87%. The “suppression of the level of LTB4 in BAL fluid” value in the data set with LTB4 was −72%.

(Values after patent US9255272B2, “Use of inhibitors of leukotriene B4 receptor BLT2 for treating asthma” (Korea University Research & Business Foundation, priority 2007, dated 2016).)
